Reference: patent publication US9358247B2, “Methods and compositions for promoting activity of anti-cancer therapies” (Oncology Research International Limited, priority 2006, dated 2016)

Assays:
[1] = test system: PC3, DU145, A549 and HT29 cell lines; test: Cancer cell growth inhibition, IC50 values used in assay for four cell lines (Example 5); format: cell-based, human; settings: Homo sapiens, value used to make up 50:50 IC50 mixtures
Procedure: Tumour cells were seeded in duplicate in 96-well plates at 2-5,000 per microtitre well containing RPMI culture medium/10% foetal calf serum. The cells were allowed to grow until the controls were nearly confluent after 5-6 days. Plates were then washed with PBS, fixed in ethanol and stained with 50 μL/well of SRB solution (sulforhodamine, 0.4% in 1% acetic acid), followed by washing with 1% acetic acid and solubilisation in Tris. The absorbance was read at 564 nm using an ELISA reader.
The IC50, or concentration required to inhibit cell growth by 50%, was determined from the percentage inhibition versus concentration data using the probit calculation methods of Finney (Finney D J (1971). Probit Analysis. 3rd Edition. Cambridge University Press).
The cell seeding and ELISA plate methodology of Example 2 were used for determining inhibition of four cancer cell lines. IC50 values were determined for the steroid saponins dioscin, deltonin and prosapogenin A, and their mixtures with cisplatin, docetaxel, doxorubicin and vincristine, using PC3, DU145, A549 and HT29 cell lines.

HT29 human cells = test: In vivo tumour volume, HT29 cells subcutaneously introduced into mice, 5-fluorouracil and deltonin; design: species or system Balb/c nude female mice
Text: 5-Fluorouracil (5FU) is the principal chemotherapeutic drug used in treating colon cancer; it is most commonly co-administered with other chemotherapeutic agents. This study compared the co-administration of 5-fluoruracil and deltonin, with administration of mono-administration of both 5-fluorourcil and deltonin.
72 female Balb/c nude female mice were microchipped, weighed and randomised based on body weight into 8 groups with 9 mice per group. […]
HT29 human […] carcinoma cells were cultured in RPMI1640 cell culture medium, which was supplemented with 10% FBS and penicillin-streptomycin (50 IU/mL final concentration). The cells were harvested by trypsinisation, washed twice in HBSS and counted. The cells were then resuspended in HBSS and adjusted to a final volume containing 2×10^7 cells/mL. For inoculation, the needle was introduced through the skin into the subcutaneous space just below the right shoulder, where 100 μL of cells (2×10^6) were discharged.
When the tumour volumes had reached an average of greater than 200 mm^3, treatment was started (Day 0). Tumour volumes were measured 3-times weekly, and determined according to the formula: V(mm^3)=length×diameter^2×π/6
Treatment was continued for 17 days. The mean tumour volumes for each dosage regime are given in Table 24 and are presented graphically in FIG. 1: […]

In the case of `C[C@@H]1CC[C@@]2(OC1)O[C@H]1C[C@H]3[C@@H]4CC=C5C[C@@H](O[C@@H]6O[C@H](CO)[C@@H](O[C@@H]7O[C@H](CO)[C@@H](O)[C@H](O)[C@H]7O)[C@H](O)[C@H]6O[C@@H]6O[C@@H](C)[C@H](O)[C@@H](O)[C@H]6O)CC[C@]5(C)[C@H]4CC[C@]3(C)[C@H]1[C@@H]2C` [Deltonin, diosgenin Rha2, [Glc4], Glc], the IC50 [1] is reported as 1000 nM, the Mean tumour volume (HT29 human cells; Deltonin 1.65 mg/kg daily, Day 0) is reported as 236 mm^3 and the Mean tumour volume (HT29 human cells; Deltonin 1.65 mg/kg daily, Day 2) is reported as 260 mm^3. For the same compound, the Mean tumour volume (HT29 human cells; Deltonin 1.65 mg/kg daily, Day 4) was 299 mm^3, the Mean tumour volume (HT29 human cells; Deltonin 1.65 mg/kg daily, Day 7) was 294 mm^3 and the Mean tumour volume (HT29 human cells; Deltonin 1.65 mg/kg daily, Day 9) was 350 mm^3. The Mean tumour volume (HT29 human cells; Deltonin 1.65 mg/kg daily, Day 11) was 462 mm^3, the Mean tumour volume (HT29 human cells; Deltonin 1.65 mg/kg daily, Day 14) was 594 mm^3 and the Mean tumour volume (HT29 human cells; Deltonin 1.65 mg/kg daily, Day 16) was 644 mm^3. For the same compound, the Mean tumour volume (HT29 human cells; Deltonin 1.65 mg/kg daily, Day 18) was 776 mm^3, the Mean tumour volume (HT29 human cells; Deltonin 3.3 mg/kg daily, Day 0) was 236 mm^3 and the Mean tumour volume (HT29 human cells; Deltonin 3.3 mg/kg daily, Day 2) was 242 mm^3. It also gave a Mean tumour volume (HT29 human cells; Deltonin 3.3 mg/kg daily, Day 4) of 271 mm^3, a Mean tumour volume (HT29 human cells; Deltonin 3.3 mg/kg daily, Day 7) of 331 mm^3 and a Mean tumour volume (HT29 human cells; Deltonin 3.3 mg/kg daily, Day 9) of 413 mm^3. The Mean tumour volume (HT29 human cells; Deltonin 3.3 mg/kg daily, Day 11) was 489 mm^3, the Mean tumour volume (HT29 human cells; Deltonin 3.3 mg/kg daily, Day 14) was 558 mm^3 and the Mean tumour volume (HT29 human cells; Deltonin 3.3 mg/kg daily, Day 16) was 742 mm^3. It also gave a Mean tumour volume (HT29 human cells; Deltonin 3.3 mg/kg daily, Day 18) of 842 mm^3, a Mean tumour volume (HT29 human cells; Deltonin 6.6 mg/kg daily, Day 0) of 235 mm^3 and a Mean tumour volume (HT29 human cells; Deltonin 6.6 mg/kg daily, Day 2) of 233 mm^3. The Mean tumour volume (HT29 human cells; Deltonin 6.6 mg/kg daily, Day 4) was 265 mm^3, the Mean tumour volume (HT29 human cells; Deltonin 6.6 mg/kg daily, Day 7) was 310 mm^3 and the Mean tumour volume (HT29 human cells; Deltonin 6.6 mg/kg daily, Day 9) was 399 mm^3. The Mean tumour volume (HT29 human cells; Deltonin 6.6 mg/kg daily, Day 11) was 490 mm^3, the Mean tumour volume (HT29 human cells; Deltonin 6.6 mg/kg daily, Day 14) was 588 mm^3 and the Mean tumour volume (HT29 human cells; Deltonin 6.6 mg/kg daily, Day 16) was 671 mm^3. For the same compound, the Mean tumour volume (HT29 human cells; Deltonin 6.6 mg/kg daily, Day 18) was 692 mm^3.
